Reference: patent publication EP3964497A1, “SUBSTITUTED VICINAL DIAMINE COMPOUNDS AND THEIR USE IN THE TREATMENT, AMELIORATION OR PREVENTION OF PAIN” (priority 2020, dated 2022)
pEC50, pKi: −log10 of the molar value. Like-named read-outs stand apart in the source and are kept apart here.

Assays:
µOR [1] = molecular target: T1, µOR (Homo sapiens, UniProt P35372); assay: G-protein mediated signaling, IP1 accumulation assay (HTRF) in HEK-293T cells with hybrid G-protein Gαqi; type: cell-based; design: expressed in transfected cells; host or cells: HEK-293T cells, transient transfection; conditions: for Emax: HEK-293T, read-out: G-protein signaling Emax
Method: (§1) Functionally selective drugs, which are biased towards Gi protein activation over β-arrestin signaling at the µOR are indicated to show an improved side effect profile. Thus, the characterization of the functional properties of the described examples at the µOR were performed by determination of the ligand stimulated G-protein related signaling and β-arrestin recruitment applying cell based in-vitro test systems. Full and partial agonists as well as antagonists for G protein related signaling were identified.
The determination of G-protein stimulated µOR activation was measured applying an IP1 accumulation assay as described previously (J. Kruell, S.K. Fehler, L. Hofmann, N. Nebel, S. Maschauer, O. Prante, P. Gmeiner, H. Lanig, H. Huebner, M.R. Heinrich. ChemMedChem 2020, 15, 1175-1186. C. Gentzsch, K. Seier, A. Drakopoulos, M.-L. Jobin, Y. Lanoiselee, Z. Koszegi, D. Maurel, R. Sounier, H. Huebner, P. Gmeiner, S. Granier, D. Calebiro, M. Decker. Ang. Chem. Int. Ed. 2020, 59, 2-9). In brief, HEK-293T cells were grown to confluence of approximately 70% and transiently transfected with the cDNA of the human µOR receptor and the hybrid G-protein Gαqi. After one day cells were seeded into 384-well microplates. For testing cells were incubated with test compounds (final range of concentration from 1 pM up to 10 µM) for 180 min at 37 °C followed by addition of detection reagents. Time resolved fluorescence resonance energy transfer (HTRF) was determined using a microplate reader. Each compound was tested in duplicates in 3-9 individual experiments in comparison to the reference compound DAMGO. The resulting dose response curves were analyzed by nonlinear regression using the algorithms in PRISM 6.0 (GraphPad software, San Diego, CA), fitted with a sigmoid model and normalized to basal activity (0 %) and the maximal effect caused by the reference full agonist DAMGO (100 %).
(§2) In the above table, the numbers indicate mean EC50 values in nM and Emax values relative to the full effect of reference agonist DAMGO [=100%], respectively and are derived from 3-9 individual experiments for G-protein signaling and 3-8 tests for arrestin recruitment. ND = not determined.

δOR = molecular target: T2, δOR (Homo sapiens, UniProt P41143); assay: competitive radioligand binding with [3H]diprenorphine, membranes of transfected HEK 293T cells
T2 construct: expressed in transfected cells; host or cells: HEK 293T cells, transient transfection, membrane preparation
Method: (§3) To verify the subtype selectivity of the described compounds for µOR over δOP and κOR, respectively, the binding affinities of the described examples to the different human opioid receptors in an in-vitro test system were measured.
(§4) For the determination of receptor binding affinity competitive radioligand binding experiments were performed as described in literature (H. Huebner, C. Haubmann, W. Utz, P. Gmeiner, J. Med. Chem., 2000, 43, 756-762). In brief, HEK 293T cells were transiently transfected with the cDNAs coding for the human opioid receptor subtypes µOR, δOR, and kOR, respectively, using a solution of polyethylenimine in PBS (PEI, linear, 25 kDa, Polysciences) as transfection reagent at a 3:1 PEI to cDNA ratio (I. Fish, A. Stoessel, K. Eitel, C. Valant, S. Albold, H. Huebner, D. Moeller, M.J. Clark, R.K. Sunahara, A. Christopoulos, B.K. Shoichet, P. Gmeiner, J. Med. Chem., 2017, 60, 9239-9250). After preparation of membranes, radioligand displacement assays were run in 96-well format at a final volume of 200 µL in binding buffer (50 mM Tris-HCI, 1 mM EDTA, 5 mM MgCl2, 100 µg/mL bacitracin, 5 µg/mL soybean trypsin inhibitor, pH 7.4) with the radioligand [^3H]diprenorphine (specific activity = 31 Ci/mmol) at a final concentration of 0.20-0.30 nM. […] Unspecific binding was determined in the presence of 10 µM of the naloxone. Protein concentrations were determined employing the method of Lowry with bovine serum albumin as standard (O.H. Lowry, N.J. Rosebrough, A.L. Farr, R.J. Randall, J. Biol. Chem., 1951, 193, 265-275). The resulting competition curves of the receptor binding experiments were analyzed by nonlinear regression. The data were initially fit using a sigmoid model to provide IC50 values, which were subsequently transformed to Ki values according to the equation of Cheng and Prusoff (Y.-C. Cheng, W. H. Prusoff, Biochem. Pharmacol., 1973, 22, 3099-3108). Three to seven experiments per compound were performed, with each concentration in triplicate.

µOR [2] = molecular target: T1, µOR; assay: as above; design: expressed in transfected cells; host or cells: HEK 293T cells, transient transfection, membrane preparation
Method: as §3, §4

µOR [3] = molecular target: T1, µOR; assay: β-arrestin-2 recruitment, enzyme-fragment complementation assay in HEK-293 cells; type: cell-based; design: expressed in transfected cells; host or cells: HEK-293 cells stably expressing EA-tagged β-arrestin-2, transiently transfected with µOR-PK1; conditions: for Emax: HEK293, relative to the full effect of reference agonist DAMGO [=100%]; for β-arrestin recruitment EC50: mean of 3-8 tests, 90 min incubation, CBA = could not be analyzed (no dose-response curve)
Method: as §1
Measurement of β-arrestin-2 recruitment was done applying an enzyme-fragment complementation assay as described previously (C. Gentzsch, K. Seier, A. Drakopoulos, M.-L. Jobin, Y. Lanoiselee, Z. Koszegi, D. Maurel, R. Sounier, H. Huebner, P. Gmeiner, S. Granier, D. Calebiro, M. Decker. Ang. Chem. Int. Ed. 2020, 59, 2-9. J. Hellmann, M. Drabek, J. Yin, J. Gunera, T. Proell, F. Kraus, C.J. Langmead, H. Huebner, D. Weikert, P. Kolb, D.M. Rosenbaum, P. Gmeiner. PNAS 2020, 117, 18059-18067). In brief, HEK-293 cells stably expressing the enzyme acceptor (EA) tagged β-arrestin-2 fusion protein were transiently co-transfected with the ProLink tagged µOR-PK1 After 24 h cells were transferred into 384-well microplates and cultured for further 24 h. To start arrestin recruitment compounds were added to the cells to get a final concentration in a range of 10 pM to 100 µM. After incubation for 90 min reaction was stopped by addition of detection mix. Chemiluminescence was determined in duplicates (3-8 individual experiments for each compound in comparison to the reference agonist DAMGO). Data analysis was done as described above.
as §2

κOR = molecular target: T3, κOR (Homo sapiens, UniProt P41145); assay: competitive radioligand binding with [3H]diprenorphine, membranes of transfected HEK 293T cells
T3 construct: expressed in transfected cells; host or cells: HEK 293T cells, transient transfection, membrane preparation
Method: as §3
After preparation of membranes, radioligand displacement assays were run in 96-well format at a final volume of 200 µL in binding buffer (50 mM Tris-HCI, 1 mM EDTA, 5 mM MgCl2, 100 µg/mL bacitracin, 5 µg/mL soybean trypsin inhibitor, pH 7.4) with the radioligand [^3H]diprenorphine (specific activity = 31 Ci/mmol) at a final concentration of 0.20-0.30 nM. […] Unspecific binding was determined in the presence of 10 µM of the naloxone. […] The resulting competition curves of the receptor binding experiments were analyzed by nonlinear regression. […] Three to seven experiments per compound were performed, with each concentration in triplicate.

[4] = radioligand [3H]diprenorphine, number in brackets = number of experiments, read-out: mean Ki value δOR
[5] = radioligand [3H]diprenorphine, number in brackets = number of experiments, read-out: mean Ki value κOR

SMILES	pEC50 (µOR [1])	Emax (µOR [1]) [%]	pKi (δOR; [4])	pKi (µOR [2])	Emax (µOR [3]) [%]	β-arrestin recruitment EC50 (µOR [3])	pKi (κOR; [5])	pKi (µOR [2]; radioligand [3H]diprenorphine, number in brackets = number of experiments, read-out: mean Ki value µOR)	pKi (δOR)	pEC50 (µOR [3])	pKi (κOR)	G-protein signaling EC50 (µOR [1]; mean of 3-9 experiments, 180 min at 37 °C, CBA = could not be analyzed (no dose-response curve))
C/C(=C\C(=O)NC[C@H](Cc1ccc(O)cc1)N(C)C)c1ccccc1 [Example 3, (S,E)-N-(2-(Dimethylamino)-3-(4-hydroxyphenyl)propyl)-3-phenylbut-2-enamide]	7.96	76	6.92	7.55	< 5	CBA	6.92	–	–	–	–	–
CN(C)[C@H](CNC(=O)/C=C/c1ccc(C(F)(F)F)cc1)Cc1ccc(O)cc1 [Example 9, (S,E)-N-(2-(Dimethylamino)-3-(4-hydroxyphenyl)propyl)-3-(4-(trifluoromethyl)phenyl)acrylamide]	7.17	92	5.96	–	< 5	CBA	5.55	6.77	–	–	–	–
CN(C)[C@H](CNC(=O)/C=C/c1ccsc1)Cc1ccc(O)cc1 [Example 19, (S,E)-N-(2-(Dimethylamino)-3-(4-hydroxyphenyl)propyl)-3-(thiophen-3-yl)acrylamide]	8.12	53	–	8.07	< 5	CBA	6.89	–	7.23	–	–	–
CN(C)[C@H](CNC(=O)/C=C/c1cccc2ccccc12)Cc1ccc(C(N)=O)cc1 [Example 18, (S,E)-4-(2-(Dimethylamino)-3-(3-(naphthalen-1-yl)acrylamido)propyl)benzamide formiate]	8.01	92	–	8.21	4	–	–	–	6.89	6.92	6.70	–
CN(C)[C@H](CNC(=O)/C=C/c1ccccc1C(F)(F)F)Cc1ccc(O)cc1 [Example 7, (S,E)-N-(2-(Dimethylamino)-3-(4-hydroxyphenyl)propyl)-3-(2-(trifluoromethyl)phenyl)acrylamide]	7.89	44	6.74	7.55	< 5	CBA	6.85	–	–	–	–	–
Cc1cc(O)cc(C)c1C[C@H](N)CNC(=O)/C=C/c1ccccc1 [Example 10, (S)-N-(2-Amino-3-(4-hydroxy-2,6-dimethylphenyl)propyl)cinnamamide formiate]	–	< 5	–	7.24	< 5	CBA	–	–	6.29	–	6.36	CBA
CN(C)[C@H](CNC(=O)/C=C/c1cccc(C(F)(F)F)c1)Cc1ccc(C(N)=O)cc1 [Example 15, (S,E)-4-(2-(Dimethylamino)-3-(3-(3-(trifluoromethyl)phenyl)acrylamido)propyl)benzamide formiate]	8.20	95	–	8.17	5	–	–	–	7.26	6.89	6.35	–
CN(C)[C@H](CNC(=O)/C=C/c1cccc(C(F)(F)F)c1)Cc1ccc(O)cc1 [Example 8, (S,E)-N-(2-(Dimethylamino)-3-(4-hydroxyphenyl)propyl)-3-(3-(trifluoromethyl)phenyl)acrylamide formiate]	7.82	100	–	7.52	< 5	CBA	–	–	6.92	–	6.24	–
